# Experimental data reported in patent publication US20130109734A1 (Metabolex, Inc., priority 2010, published 2013).
# Target: T1, human GPR120 (Homo sapiens, UniProt Q5NUL3)
# T1 construct: host or cells: HEK293 cells co-expressing Gqi5
# T1 sequence (Q5NUL3 1-361): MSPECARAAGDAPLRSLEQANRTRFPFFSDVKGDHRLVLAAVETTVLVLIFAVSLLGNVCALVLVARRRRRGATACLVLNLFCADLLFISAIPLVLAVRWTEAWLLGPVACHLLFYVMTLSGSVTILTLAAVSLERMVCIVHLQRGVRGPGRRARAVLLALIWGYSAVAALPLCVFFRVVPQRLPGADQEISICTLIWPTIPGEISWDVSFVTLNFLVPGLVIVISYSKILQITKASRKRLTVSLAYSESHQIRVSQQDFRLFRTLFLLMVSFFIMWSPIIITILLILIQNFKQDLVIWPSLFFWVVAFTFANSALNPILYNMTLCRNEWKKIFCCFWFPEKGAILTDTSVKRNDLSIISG
# Assay: Intracellular Ca2+ assay in human GPR120 stable cell line (HEK293 co-expressing Gqi5), Flexstation
# Type: cell-based
# Conditions: % activity at 5 μM compared to the maximal activity of GW9508 at 6.7 μM (=100%); human GPR120 cells, Ca2+ fluorescence
# Experimental: Human GPR120 stable cell line was purchased from Multispan Inc (26219 Eden Landing Road, Hayward, Calif. 94545). This GPR120 cell line was generated in HEK293 cells co-expressing Gqi5. In this cell line, the Flag epitope tag (DYKDDDDK) was fused to the amino terminus of human GPR120 protein.
# The concentration of intracellular Ca^2+ was measured as described below. Human GPR120 cells were plated in 96 well plates (Poly-D-Lysine coated black/clear Plate, Greiner Bio-One) at 70,000 cells per well and cultured overnight in conditions of 37° C. and 5% CO2. A Ca^2+assay dye stock solution was prepared by adding 10 mL of assay buffer (HBSS/20 mM HEPES, pH 7.4) to FLIPR Calcium 4 Assay Bulk Kit (Molecular Devices). The 10 mL of Ca^2+ assay dye solution was prepared by further diluting 0.5 mL of Ca^2+ assay dye stock solution with 10 mL of assay buffer. The medium of the cells was removed and immediately 100 μL of the Ca^2+ assay dye solution was dispensed into each well followed by incubation at 37° C. and 5% CO2 for 50 minutes to incorporate the Ca^2+ dye into the cells. The cell plate was then placed in the Flexstation (Molecular Devices) for 20 minutes at 37° C. Compounds were dissolved in 100% DMSO and diluted to desired concentrations with assay buffer and placed in the Flexstation simultaneously with the cell plate for 20 minute incubation at 37° C. prior to reading. Fluorescence intensity was measured immediately following compound addition (25 μL/well) on the Flexstation at an excitation wavelength of 485 nm and an emission wavelength of 525 with 515 nm auto cutoff. The resulting increase in fluorescence intensities corresponds to increases in intracellular Ca^2+ levels.
# Compounds were dissolved in 100% DMSO to a concentration of 20 mM to provide stock solutions. To determine activity against human GPR120, compounds were added with human GPR120 stably expressing cells (described above), at eight desired concentrations ranging from 0.00001 to 20 μM, in 96 well plates and fluorescence intensities were measured for 90 seconds with 2-second intervals. An EC50 value (concentration of the GPR120 agonist where 50% of the agonist's maximal activity is observed) was calculated using the changes (Max−Min) of fluorescence intensity.
# To determine percent activity for a tested compound, the fluorescence intensity value obtained at a particular concentration were compared to the maximal fluorescence intensity value obtained for reference compound GW9508 (4-[[(3-phenoxyphenyl)methyl]amino]benzene propanoic acid; British Journal of Pharmacology 2006 148, 619-628) or the compound of Example 25. When GW9508 was used as the reference compound, the maximal activity of GW9508 at 6.7 μM was designated as 100% activity. When the compound of Example 25 was used as the reference compound, the maximal activity of the compound of Example 25 at 2.5 μM was designated as 100% activity. Typically, the GW9508 activity reached a maximum at a concentration of approximately 6.7 μM and typically the compound of Example 25 reached a maximum activity at approximately 2.5 μM.
row,% Activity (GW9508 Reference Compound) [%],Structure (SMILES)
1,117.58,"CC1(C)Cc2cc(Cl)cc(COc3ccc(SCC(=O)O)cc3)c2O1 [Example 59, 2-((4-((5-chloro-2,2-dimethyl-2,3-dihydrobenzofuran-7-yl)methoxy)phenyl)thio)-acetic acid]"
2,95.03,"CC1(C)Cc2cc(F)cc(COc3ccc(CCC(=O)O)c4c3CCC4)c2O1 [Example 63, 3-(7-((5-fluoro-2,2-dimethyl-2,3-dihydrobenzofuran-7-yl)methoxy)-2,3-dihydro-1H-inden-4-yl)propanoic acid]"
3,141.04,"C[C@H](Cc1ccc(OCc2cc(F)cc3c2OC(C)(C)C3)cc1)C(=O)O [Example 65, (R)-3-(4-((5-fluoro-2,2-dimethyl-2,3-dihydrobenzofuran-7-yl)methoxy)phenyl)-2-methylpropanoic acid]"
4,141.82,"CC(Cc1ccc(NCc2cc(F)cc3c2OC(C)(C)C3)cc1)C(=O)O (stereo not drawn) [Example 67, 3-(4-(((5-fluoro-2,2-dimethyl-2,3-dihydrobenzofuran-7-yl)methyl)amino)phenyl)-2-methylpropanoic acid]"
5,69.03,"CC(Cc1ccc(NC(=O)c2cc(F)cc3c2OC(C)(C)C3)cc1)C(=O)O (stereo not drawn) [Example 68, 3-(4-(5-fluoro-2,2-dimethyl-2,3-dihydrobenzofuran-7-carboxamido)phenyl)-2-methylpropanoic acid]"
6,78.46,"CCOC(Cc1cc(F)c(OCc2cc(F)cc3c2OC(C)(C)C3)c(F)c1)C(=O)O (stereo not drawn) [Example 69, 3-(3,5-difluoro-4-((5-fluoro-2,2-dimethyl-2,3-dihydrobenzofuran-7-yl)methoxy)phenyl)-2-ethoxypropanoic acid]"
7,133.8,"CC1(C)Cc2cc(Cl)cc(COc3ccc(CCC(=O)O)c(-c4ccccc4)c3)c2O1 [Example 71, 3-(5-((5-chloro-2,2-dimethyl-2,3-dihydrobenzofuran-7-yl)methoxy)-[1,1′-biphenyl]-2-yl)propanoic acid]"
8,114.85,"CCCc1cc(OCc2cc(Cl)cc3c2OC(C)(C)C3)c(F)cc1CCC(=O)O [Example 73, 3-(4-((5-chloro-2,2-dimethyl-2,3-dihydrobenzofuran-7-yl)methoxy)-5-fluoro-2-propylphenyl)propanoic acid]"
9,109.62,"CC(Cc1ccc(OCc2cc(Cl)cc3c2OC(C)(C)C3=O)c(F)c1)C(=O)O (stereo not drawn) [Example 77, 3-(4-((5-chloro-2,2-dimethyl-3-oxo-2,3-dihydrobenzofuran-7-yl)methoxy)-3-fluorophenyl)-2-methylpropanoic acid]"
10,3.85,"CC(Cc1ccc(OCc2cc(Cl)cc3c2OC(C)(C)C3=O)c(C(F)(F)F)c1)C(=O)O (stereo not drawn) [Example 79, 3-(4-((5-chloro-2,2-dimethyl-3-oxo-2,3-dihydrobenzofuran-7-yl)methoxy)-3-(trifluoromethyl)phenyl)-2-methylpropanoic acid]"
11,86.25,"CC(Cc1ccc(OCc2cc(Cl)cc3c2OC(C)(C)C3O)c(F)c1)C(=O)O (stereo not drawn) [Example 80, 3-(4-((5-chloro-3-hydroxy-2,2-dimethyl-2,3-dihydrobenzofuran-7-yl)methoxy)-3-fluorophenyl)-2-methylpropanoic acid]"
12,5.23,"COc1cccc(-c2cc(COc3ccc(CC(C)C(=O)O)cc3)c3c(c2)CC(C)(C)O3)c1 (stereo not drawn) [Example 86, 3-(4-((5-(3-methoxyphenyl)-2,2-dimethyl-2,3-dihydrobenzofuran-7-yl)methoxy)phenyl)-2-methylpropanoic acid]"
13,118.92,"CC(Cc1ccc(OCc2cc(Cl)cc3c2OC(C)(C)C3)c(CN(C)C)c1)C(=O)O (stereo not drawn) [Example 88, 3-(4-((5-chloro-2,2-dimethyl-2,3-dihydrobenzofuran-7-yl)methoxy)-3-((dimethylamino)methyl)phenyl)-2-methylpropanoic acid]"
14,82.28,"CCN(CC)c1cc(COc2ccc(CC(C)C(=O)O)cc2)c2c(c1)CC(C)(C)O2 (stereo not drawn) [Example 89, 3-(4-((5-(diethylamino)-2,2-dimethyl-2,3-dihydrobenzofuran-7-yl)methoxy)phenyl)-2-methylpropanoic acid]"
15,75.86,"CC(Cc1ccc(OCc2cc(-n3cnnn3)cc3c2OC(C)(C)C3)cc1)C(=O)O (stereo not drawn) [Example 90, 3-(4-((2,2-dimethyl-5-(1H-tetrazol-1-yl)-2,3-dihydrobenzofuran-7-yl)methoxy)phenyl)-2-methylpropanoic acid]"
16,121.29,"CC(Cc1ccc(OCc2ccc(F)c3c2CC(C)(C)O3)cc1)C(=O)O (stereo not drawn) [Example 91, 3-(4-((7-fluoro-2,2-dimethyl-2,3-dihydrobenzofuran-4-yl)methoxy)phenyl)-2-methylpropanoic acid]"
17,98.45,"CC1(C)Cc2c(COc3ccc4c(c3)CCC4CC(=O)O)ccc(F)c2O1 (stereo not drawn) [Example 94, 2-(5-((7-fluoro-2,2-dimethyl-2,3-dihydrobenzofuran-4-yl)methoxy)-2,3-dihydro-1H-inden-1-yl)acetic acid]"
18,124.82,"CC(Cc1ccc(OCc2c(F)ccc3c2CC(C)(C)O3)cc1)C(=O)O (stereo not drawn) [Example 96, 3-(4-((5-fluoro-2,2-dimethyl-2,3-dihydrobenzofuran-4-yl)methoxy)phenyl)-2-methylpropanoic acid]"
19,101.53,"CC1(C)Cc2c(ccc(F)c2COc2c(F)cc(C3CC3C(=O)O)cc2F)O1 (stereo not drawn) [Example 99, 2-(3,5-difluoro-4-((5-fluoro-2,2-dimethyl-2,3-dihydrobenzofuran-4-yl)methoxy)phenyl)cyclopropanecarboxylic acid]"
20,98.96,"Cc1cc(OCC(=O)O)ccc1OCc1cc(Cl)cc2c1OC(C)(C)C2 [Example 103, 2-(4-((5-chloro-2,2-dimethyl-2,3-dihydrobenzofuran-7-yl)methoxy)-3-methylphenoxy)acetic acid]"
21,154.51,"CC(CC(=O)O)c1cc(F)c(OCc2cc(Cl)cc3c2OC(C)(C)C3)c(F)c1 (stereo not drawn) [Example 106, 3-(4-((5-chloro-2,2-dimethyl-2,3-dihydrobenzofuran-7-yl)methoxy)-3,5-difluorophenyl)butanoic acid]"
22,143.85,"COc1cc(COc2ccc(CC(C)C(=O)O)cc2)c2c(c1)CC(C)(C)O2 (stereo not drawn) [Example 108, 3-(4-((5-methoxy-2,2-dimethyl-2,3-dihydrobenzofuran-7-yl)methoxy)phenyl)-2-methylpropanoic acid]"
23,72.36,"CC(Cc1cc(F)c(OCc2cc(Cl)cc3c2OC(C)C3(C)C)c(F)c1)C(=O)O (stereo not drawn) [Example 109, 3-(4-((5-chloro-2,3,3-trimethyl-2,3-dihydrobenzofuran-7-yl)methoxy)-3,5-difluorophenyl)-2-methylpropanoic acid]"

row,Structure (SMILES),% Activity (GW9508 Reference Compound) [%]
1,"CC1(C)Cc2cc(F)cc(CCc3ccc(OCC(=O)O)cc3)c2O1 [Example 70, 2-(4-(2-(5-fluoro-2,2-dimethyl-2,3-dihydrobenzofuran-7-yl)ethyl)phenoxy)acetic acid]",117.72
2,"CC(Cc1ccc(OCc2cc(-c3ccc(Cl)cc3)cc3c2OC(C)(C)C3)cc1)C(=O)O (stereo not drawn) [Example 82, 3-(4-((5-(4-chlorophenyl)-2,2-dimethyl-2,3-dihydrobenzofuran-7-yl)methoxy)phenyl)-2-methylpropanoic acid]",24

# Same assay, conditions: human GPR120 stably expressing cells, Ca2+ fluorescence (Max-Min), eight concentrations 0.00001 to 20 μM
row,EC50 [µM],Structure (SMILES)
1,> 10,"CC(Cc1ccc(NC(=O)c2cc(F)cc3c2OC(C)(C)C3)cc1)C(=O)O (stereo not drawn) [Example 68, 3-(4-(5-fluoro-2,2-dimethyl-2,3-dihydrobenzofuran-7-carboxamido)phenyl)-2-methylpropanoic acid]"
2,> 10,"CCOC(Cc1cc(F)c(OCc2cc(F)cc3c2OC(C)(C)C3)c(F)c1)C(=O)O (stereo not drawn) [Example 69, 3-(3,5-difluoro-4-((5-fluoro-2,2-dimethyl-2,3-dihydrobenzofuran-7-yl)methoxy)phenyl)-2-ethoxypropanoic acid]"
